From PMC3683333, “^11C-LY2428703, a positron emission tomographic radioligand for the metabotropic glutamate receptor 1, is unsuitable for imaging in monkey and human brains” (EJNMMI Research, 2013)

How the values were obtained:
[1] = Arterial plasma analysis after injection, human; type: in vivo
Description: Plasma analyses were performed on a reverse-phase chromatography C18 column (Novapak, 4 μm, 100 × 8 mm, Waters Corp. Milford, MA, USA) using Radial-Pak® compression module RCM-100 with a sentry pre-column. Human plasma analyses were performed with a mobile phase of […], at a flow rate of 2.5 mL/min; nonhuman primate plasma samples were analyzed with a mobile phase of MeOH/H2O/Et3N, 72.5:27.5:0.1 by volume, at a flow rate of 1.5 mL/min. To compare the outcome from both systems, elution volume is reported rather than retention time.
Arterial plasma was analyzed as previously described. Briefly, after ^11C-LY2428703 injection into either human or nonhuman primate, the input function was determined by periodically drawing anticoagulated blood samples. Blood aliquots were removed so that the γ-counter could provide information necessary for vascular correction. The remaining blood was then centrifuged, and plasma (450 μL) aliquots were removed and placed in acetonitriles (720 μL/ea) spiked with carrier LY2428703. The samples were mixed well, 100 μL water aliquots were added, and then, the sample was further mixed. The samples were counted in the γ-counter and centrifuged at 10,000×g for 1 min. The clear supernatant liquids were injected onto the radio-HPLC as described above. The precipitates were then counted for radioactivity to allow the calculation of the efficiency of recovery of radioactivity in the acetonitrile. Human plasma samples were separated with a mobile phase of higher polarity ([…]) to ensure that the parent radiochromatographic peak comprised a single radiochemical species.
PET images were acquired using the GE Advance scanner (GE Healthcare, Milwaukee, WI, USA) for 120 min. An 8-min ^68Ge transmission scan was obtained before the injection of the radiotracer for attenuation correction. The mean injected activity was 328 ± 12 MBq. The specific activity at the time of injection was 87.2 ± 34.7 GBq/μmol, which corresponded to 5.5 ± 2.3 nmol (0.082 ± 0.037 nmol/kg) of carrier. Blood samples (1 mL each) were drawn from the radial artery at 15-s intervals until 150 s, followed by 3-mL samples at 3, 4, 6, 8, 10, 15, 20, 30, 40, and 50 min, and 4.5 mL at 60, 75, 90, and 120 min. The unchanged parent fraction in plasma and fP of ^11C-LY2428703 were determined as described above.

[2] = Pharmacological effects of injection, monkey; type: in vivo, rhesus monkeys; settings: after injection
Description: PET images were acquired using either the high-resolution research tomograph (HRRT) or the FOCUS 220 scanner (Siemens/CPS, Knoxville, TN, USA) for 120 min in 33 frames, with frame durations ranging from 30 s to 5 min, and correcting for attenuation and scatter. About 2 h before the PET scan, anesthesia was initiated with ketamine (10 mg/kg IM) and then maintained with 1% to 3% isoflurane. Electrocardiograph, body temperature, heart rate, and respiration rate were measured throughout the experiment. At baseline, the injected activity was 210 ± 51 MBq (specific activity at time of injection 43.2 ± 25.6 GBq/μmol, mass dose 6.9 ± 4.7 nmol or 0.62 ± 0.35 nmol/kg). Tissue time-activity curves were obtained from semi-automatic regions of interest encompassing the whole cerebellum and the rest of the brain. Brain uptake was expressed as standardized uptake value (SUV). Arterial input function was obtained for eight scans: four at baseline, two after blocking with nonradioactive LY2428703, one after blocking with DCPQ, and one after blocking with elacridar. Blood samples (0.5 mL each) were drawn through a port connected to the femoral artery at 15-s intervals until 2 min, followed by 1-mL samples at 3, 5, 10, 30, 60, 90, and 120 min. The plasma time-activity curve was corrected for the fraction of unchanged radioligand following the procedure detailed above.

mGluR1 = biological target: T1, mGluR1 (Macaca mulatta, UniProt I2CU04); assay: Saturation binding assay with [^3H]LY456066, monkey cerebellar membranes; set-up: species or system rhesus monkeys; settings: monkeys
T1 construct: P2 membrane fractions were prepared from the cerebella of; from tissue; host or cells: rhesus monkey cerebellum, P2 membrane fraction
Description: P2 membrane fractions were prepared from the cerebella of male Sprague–Dawley rats (n = 3), male rhesus monkeys (n = 3), and female humans (n = 4). […] Nonspecific binding was defined by heterologous displacement of 1 μM LY480084 (mGlu1 antagonist) in select wells. Plates were incubated on ice for 75 min and membranes harvested on 0.3% polyethylenimine pretreated Wallac filter mats using a Tomtec Harvester MachII (Tomtec, Hamden, CT, USA). Dissociation constant (KD) and receptor density (Bmax) values were obtained in GraphPad Prism using standard nonlinear one-site binding equations. Data are presented as mean ± SEM (n = 3 to 4); one-way analysis of variance followed by Tukey's post hoc test.

P-gp = tested on: P-gp; set-up: method as in PMID 23135321; settings: previous in vitro analyses; cited from earlier work

T1 sequence (I2CU04 19-1195): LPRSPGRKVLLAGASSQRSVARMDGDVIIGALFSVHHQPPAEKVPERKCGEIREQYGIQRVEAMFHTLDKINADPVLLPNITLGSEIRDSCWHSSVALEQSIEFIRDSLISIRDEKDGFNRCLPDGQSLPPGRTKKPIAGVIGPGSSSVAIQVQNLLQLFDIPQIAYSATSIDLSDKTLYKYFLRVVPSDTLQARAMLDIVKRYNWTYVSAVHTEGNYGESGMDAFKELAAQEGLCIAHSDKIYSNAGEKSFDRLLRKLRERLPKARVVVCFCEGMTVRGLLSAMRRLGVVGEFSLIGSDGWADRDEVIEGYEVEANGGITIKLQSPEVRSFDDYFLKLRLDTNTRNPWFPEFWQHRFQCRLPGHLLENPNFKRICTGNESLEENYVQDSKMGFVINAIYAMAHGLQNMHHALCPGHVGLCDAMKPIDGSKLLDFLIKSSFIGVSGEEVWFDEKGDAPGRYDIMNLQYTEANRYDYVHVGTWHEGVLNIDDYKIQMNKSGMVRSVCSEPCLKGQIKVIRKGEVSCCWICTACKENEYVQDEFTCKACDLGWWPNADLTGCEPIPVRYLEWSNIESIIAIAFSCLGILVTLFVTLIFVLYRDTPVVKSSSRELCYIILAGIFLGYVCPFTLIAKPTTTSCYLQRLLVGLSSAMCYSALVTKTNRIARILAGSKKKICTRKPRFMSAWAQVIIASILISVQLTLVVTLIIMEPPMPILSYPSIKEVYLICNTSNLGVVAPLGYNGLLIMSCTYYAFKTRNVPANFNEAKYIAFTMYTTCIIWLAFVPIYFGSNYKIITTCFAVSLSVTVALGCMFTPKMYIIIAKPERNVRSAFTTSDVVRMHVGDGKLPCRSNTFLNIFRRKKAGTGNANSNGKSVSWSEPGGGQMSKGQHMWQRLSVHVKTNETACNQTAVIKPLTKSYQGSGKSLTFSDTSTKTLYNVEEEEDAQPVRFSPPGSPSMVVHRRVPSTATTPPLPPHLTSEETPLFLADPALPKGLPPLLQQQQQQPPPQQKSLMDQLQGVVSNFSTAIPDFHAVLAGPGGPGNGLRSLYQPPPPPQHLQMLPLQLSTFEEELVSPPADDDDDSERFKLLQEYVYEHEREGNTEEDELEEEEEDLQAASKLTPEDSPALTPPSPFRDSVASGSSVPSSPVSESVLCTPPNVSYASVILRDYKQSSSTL

**Q.** What does the source list for `Cc1c(-c2ccc(O[11CH3])cc2)nsc1NC(=O)[C@@H]1C[C@H]1C` [^11C-LY2428703]?
**A.** peak plasma concentration [1]: 33 ± 5 SUV; time of peak plasma concentration [1]: 1.5 ± 0 min; radiometabolites in plasma ([1]; at 2 h): approximately 1%; parent radioligand as share of total blood radioactivity ([1]; entire 2-h imaging period): ~99%; changes in pulse/heart rate, respiratory rate, electrocardiogram [2]: no significant changes; fp × Bmax/KD (=VS), effective BP (mGluR1): 0.161; substrate for P-gp (P-gp): not a substrate
